Structures can show the parent of a compound that is named as a salt. Where two headings read alike, the source gives them in different places.
Molecular target: Btk enzyme (His-Btk) (Homo sapiens (Human), UniProt Q06187)
Experiment: Btk enzyme activity, IMAP fluorescence polarization assay (Assay Method A)
[1] = read-out: EC50 Btk activity values - Assay Method A, IMAP-FP, 60 min pre-incubation, 5 μM ATP, class 100-1000 is given as ≧100 nM-<1 μM

Chain of Btk enzyme (His-Btk) (Q06187 whole entry): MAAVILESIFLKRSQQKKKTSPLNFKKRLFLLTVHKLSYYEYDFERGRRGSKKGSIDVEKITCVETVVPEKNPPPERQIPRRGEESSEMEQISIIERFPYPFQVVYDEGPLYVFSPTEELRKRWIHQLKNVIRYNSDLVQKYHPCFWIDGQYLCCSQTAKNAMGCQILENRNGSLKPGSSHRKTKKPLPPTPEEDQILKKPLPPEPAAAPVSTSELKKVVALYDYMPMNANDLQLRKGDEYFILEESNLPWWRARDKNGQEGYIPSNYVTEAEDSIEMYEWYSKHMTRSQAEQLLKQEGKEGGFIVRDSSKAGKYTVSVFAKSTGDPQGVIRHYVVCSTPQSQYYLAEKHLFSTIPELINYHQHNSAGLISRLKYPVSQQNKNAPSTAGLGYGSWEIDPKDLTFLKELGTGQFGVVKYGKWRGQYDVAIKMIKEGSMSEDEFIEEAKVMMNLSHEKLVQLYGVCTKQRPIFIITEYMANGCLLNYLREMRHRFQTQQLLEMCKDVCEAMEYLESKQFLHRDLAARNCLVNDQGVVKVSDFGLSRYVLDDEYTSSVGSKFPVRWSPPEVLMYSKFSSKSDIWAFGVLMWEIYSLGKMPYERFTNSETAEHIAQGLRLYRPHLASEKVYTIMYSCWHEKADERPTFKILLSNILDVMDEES
Experimental: Inhibition of kinase activity can be measured using the Immobilized Metal Assay for Phosphochemicals (IMAP) assay. IMAP is a homogeneous fluorescence polarization (FP) assay based on affinity capture of phosphorylated peptide substrates. IMAP uses fluorescein-labeled peptide substrates that, upon phosphorylation by a protein kinase, bind to so-called IMAP nanoparticles, which are derivatized with trivalent metal complexes.
Btk enzyme activity is measured using the IMAP (immobilized metal ion affinity-based fluorescence polarization) assay as outlined below.
Test compounds and Btk enzyme are pre-incubated 60 minutes at room temperature, before adding 5 μL/well of 200 nM Fluorescin labeled substrate peptide (Blk/Lyntide substrate, e.g. #R7188/#R7233, Molecular Devices) in KR-buffer. Final peptide substrate concentration in assay is 50 nM. […] Following incubation for 2 h at room temperature the enzyme reaction is stopped by adding 40 μL/well IMAP Progressive Binding Solution (according to suppliers (Molecular Devices) protocol using 75% 1× buffer A and 25% 1× buffer B with 1:600 Progressive Binding Solution). After 60 min incubation at room temperature in the dark the FP signal is read. […] Values are calculated as percentage of the difference in readout (ΔmPi) of the controls with and without ATP. EC50 values are determined by curve fitting of the experimental results using Activity Base.

SMILES | EC50 [1] [nM] | EC50 [nM] | further results
CC1(C(=O)N2CCC[C@@H](c3nc(-c4ccc(C(=O)Nc5cc(C(F)(F)F)ccn5)cc4)c4c(N)ncc(Cl)n34)C2)COC1 [Example 301, (R)-4-(8-amino-5-chloro-3-(1-(3-methyloxetane-3-carbonyl)piperidin-3-yl)imidazo[1,5-a]pyrazin-1-yl)-N-(4-(trifluoromethyl)pyridin-2-yl)benzamide] | < 10 | – | –
CC1(C(=O)N2CCC[C@@H](c3nc(-c4ccc(C(=O)Nc5cc(C(F)(F)F)ccn5)cc4)c4c(N)ncc(/C=C/c5ccc(F)cc5)n34)C2)COC1 [Example 318, (R,E)-4-(8-amino-5-(4-fluorostyryl)-3-(1-(3-methyloxetane-3-carbonyl)piperidin-3-yl)imidazo[1,5-a]pyrazin-1-yl)-N-(4-(trifluoromethyl)pyridin-2-yl)benzamide] | < 10 | – | –
CC(C)(F)C(=O)N1CCC[C@@H](n2nc(-c3ccc(C(=O)Nc4cc(C(F)(F)F)ccn4)cc3)c3c(N)ncnc32)C1 [Example 270, (R)-4-(4-amino-1-(1-(2-fluoro-2-methylpropanoyl)piperidin-3-yl)-1H-pyrazolo[3,4-d]pyrimidin-3-yl)-N-(4-(trifluoromethyl)pyridin-2-yl)benzamide] | – | 10 to 100 | –
Nc1nccn2c1c(-c1ccc(C(=O)Nc3cc(N4CCCC4)ccn3)cc1)nc2[C@H]1CC[C@H](O)CC1 [Example 21, 4-(8-amino-3-((trans)-4-hydroxycyclohexyl)imidazo[1,5-a]pyrazin-1-yl)-N-(4-(pyrrolidin-1-yl)pyridin-2-yl)benzamide] | – | 10 to 100 | –
Nc1nccn2c([C@@H]3CCCN(C(=O)OCc4ccccc4)C3)nc(-c3ccc(C(=O)Nc4cc(C(F)(F)F)ccn4)cc3)c12 [Example 107, (R)-benzyl 3-(8-amino-1-(4-(4-(trifluoromethyl)pyridin-2-ylcarbamoyl)phenyl)imidazo[1,5-a]pyrazin-3-yl)piperidine-1-carboxylate] | – | – | EC50 (read-out: EC50 Btk activity values - Assay Method A): < 10 nM
C=Cc1cnc(N)c2c(-c3ccc(C(=O)Nc4cc(C(F)(F)F)ccn4)cc3)nc([C@@H]3CCCN(C(=O)C4(C)COC4)C3)n12 [Example 302, (R)-4-(8-amino-3-(1-(3-methyloxetane-3-carbonyl)piperidin-3-yl)-5-vinylimidazo[1,5-a]pyrazin-1-yl)-N-(4-(trifluoromethyl)pyridin-2-yl)benzamide] | < 10 | – | –
CC(C)C(=O)N[C@H]1CCC[C@@H](c2nc(-c3ccc(C(=O)Nc4cc(C(F)(F)F)ccn4)cc3)c3c(N)nccn23)C1 (relative stereo) [Example 159, 4-(8-amino-3-((cis)-3-isobutyramidocyclohexyl)imidazo [1,5-a]pyrazin-1-yl)-N-(4-(trifluoromethyl)pyridin-2-yl)benzamide] | < 10 | – | –
Nc1nccn2c([C@@H]3CCCN(C(=O)CC4CC4)C3)nc(-c3ccc(C(=O)Nc4ccccn4)cc3)c12 [Example 92, (R)-4-(8-amino-3-(1-(2-cyclopropylacetyl)piperidin-3 yl)imidazo[1,5-a]pyrazin-1-yl)-N-(pyridin-2-yl)benzamide] | – | < 10 | –
Nc1nccn2c(C3CC4CCC3N4C(=O)OCc3ccccc3)nc(-c3ccc(C(=O)Nc4ccccn4)cc3)c12 (stereo not shown) [Example 149, benzyl 2-(8-amino-1-(4-(pyridin-2-ylcarbamoyl)phenyl)imidazo [1,5-a]pyrazin-3-yl)-7-azabicyclo[2.2.1]heptane-7-carboxylate] | – | 10 to 100 | –
CCN1CCC[C@@H](c2nc(-c3ccc(C(=O)Nc4cc(C(F)(F)F)ccn4)cc3)c3c(N)nccn23)C1 [Example 138, (R)-4-(8-amino-3-(1-ethylpiperidin-3-yl)imidazo[1,5-a]pyrazin-1-yl)-N-(4-(trifluoromethyl)pyridin-2-yl)benzamide, TFA salt] | – | 10 to 100 | –
CC1(C(=O)N2CCC[C@@H](c3nc(-c4ccc(C(=O)Nc5cc(C#N)ccn5)cc4)c4c(N)nccn34)C2)COC1 [Example 99, (R)-4-(8-amino-3-(1-(3-methyloxetane-3 carbonyl)piperidin-3-yl)imidazo[1,5-a]pyrazin-1-yl)-N-(4-cyanopyridin-2-yl)benzamide] | – | < 10 | –
Nc1nccn2c([C@@H]3CCCN(C(=O)C4(O)CC4)C3)nc(-c3ccc(C(=O)Nc4ccccn4)cc3)c12 [Example 94, (R)-4-(8-amino-3-(1-(1-hydroxycyclopropanecarbonyl)piperidin-3-yl)imidazo[1,5-a]pyrazin-1-yl)-N-(pyridin-2-yl)benzamide] | – | 10 to 100 | –
CC1(C(=O)N[C@H]2CCCN(c3nc(-c4ccc(C(=O)Nc5cc(C(F)(F)F)ccn5)cc4)c4c(N)nccn34)C2)COC1 [Example 218, (S)-N-(1-(8-amino-1-(4-(4-(trifluoromethyl)pyridin-2-ylcarbamoyl)phenyl)imidazo [1,5-a]pyrazin-3-yl)piperidin-3-yl)-3-methyloxetane-3-carboxamide] | < 10 | – | –
Nc1nccn2c(N3CCCC(C(=O)NCC4CC4)C3)nc(-c3ccc(C(=O)Nc4cc(C5CC5)ccn4)cc3)c12 (stereo not shown) [Example 245, 1-(8-amino-1-(4-(4-cyclopropylpyridin-2-ylcarbamoyl)phenyl)imidazo[1,5-a]pyrazin-3-yl)-N-(cyclopropylmethyl)piperidine-3-carboxamide, TFA salt] | < 10 | – | –

Second part, led by results:

EC50 [1] [nM] | EC50 [nM] | SMILES | further results
< 10 | – | COCCOCCC(=O)N1CCC[C@@H](n2nc(-c3ccc(C(=O)Nc4cc(C(F)(F)F)ccn4)cc3)c3c(N)ncnc32)C1 [Example 275, (R)-4-(4-amino-1-(1-(3-(2-methoxyethoxy)propanoyl)piperidin-3-yl)-1H-pyrazolo[3,4-d]pyrimidin-3-yl)-N-(4-(trifluoromethyl)pyridin-2-yl)benzamide] | –
< 10 | – | Nc1ncc(/C=C/c2ccccc2)n2c(C3CCOCC3)nc(-c3ccc(C(=O)Nc4ccccn4)cc3)c12 [Example 313, (E)-4-(8-amino-5-styryl-3-(tetrahydro-2H-pyran-4-yl)imidazo[1,5-a]pyrazin-1-yl)-N-(pyridin-2-yl)benzamide] | –
< 10 | – | CONC(=O)C1CCCN(c2nc(-c3ccc(C(=O)Nc4cc(C(F)(F)F)ccn4)cc3)c3c(N)nccn23)C1 (stereo not shown) [Example 242, 1-(8-amino-1-(4-(4-(trifluoromethyl)pyridin-2-ylcarbamoyl)phenyl)imidazo[1,5-a]pyrazin-3-yl)-N-methoxypiperidine-3-carboxamide, TFA salt] | –
– | < 10 | CC1(C(=O)N2CCC[C@@H](c3nc(-c4ccc(C(=O)Nc5cc(C(F)(F)F)ccn5)cc4)c4c(N)nccn34)C2)CCC1 [Example 70, (R)-4-(8-amino-3-(1-(1-methylcyclobutanecarbonyl)piperidin-3-yl)imidazo[1,5-a]pyrazin-1-yl)-N-(4-(trifluoromethyl)pyridin-2-yl)benzamide] | –
– | 10 to 100 | Nc1nccn2c([C@@H]3CCCN(C=O)C3)nc(-c3ccc(C(=O)Nc4ccccn4)cc3)c12 [Example 95, (R)-4-(8-amino-3-(1-formylpiperidin-3-yl)imidazo[1,5-a]pyrazin-1-yl)-N-(pyridin-2-yl)benzamide] | –
– | < 10 | CC(C)C1CC(C(=O)N2CCC[C@@H](c3nc(-c4ccc(C(=O)Nc5cc(C(F)(F)F)ccn5)cc4)c4c(N)nccn34)C2)C1 (stereo partly drawn) [Example 89, (R)-4-(8-amino-3-(1-(3-isopropylcyclobutanecarbonyl)piperidin-3-yl)imidazo[1,5-a]pyrazin-1-yl)-N-(4-(trifluoromethyl)pyridin-2-yl)benzamide] | –
< 10 | – | C[C@H]1CC[C@@H](c2nc(-c3ccc(C(=O)Nc4ccccn4)cc3)c3c(N)nccn23)CN1C(=O)C1CC1 (relative stereo) [Example 192, 4-(8-amino-3-((cis)-1-(cyclopropanecarbonyl)-6-methylpiperidin-3-yl)imidazo[1,5-a]pyrazin-1-yl)-N-(pyridin-2-yl)benzamide, TFA salt] | –
– | < 10 | Cc1noc(C)c1C(=O)N1CCC[C@@H](c2nc(-c3ccc(C(=O)Nc4cc(C(F)(F)F)ccn4)cc3)c3c(N)nccn23)C1 [Example 74, (R)-4-(8-amino-3-(1-(3,5-dimethylisoxazole-4-carbonyl)piperidin-3 yl)imidazo[1,5-a]pyrazin-1-yl)-N-(4-(trifluoromethyl)pyridin-2-yl)benzamide] | –
< 10 | – | Nc1nccn2c(N3CCOCC3)nc(-c3ccc(C(=O)Nc4cc(C(F)(F)F)ccn4)cc3)c12 [Example 211, 4-(8-amino-3-morpholinoimidazo[1,5-a]pyrazin-1-yl)-N-(4-(trifluoromethyl)pyridin-2-yl)benzamide] | –
– | 10 to 100 | CC1(C(=O)N2CCC[C@@H](c3nc(-c4ccc(C(=O)Nc5cc(C(F)(F)F)ccn5)cc4)c4c(N)ncc(-c5ccccc5)n34)C2)COC1 [Example 321, (R)-4-(8-amino-3-(1-(3-methyloxetane-3-carbonyl)piperidin-3-yl)-5-phenylimidazo[1,5-a]pyrazin-1-yl)-N-(4-(trifluoromethyl)pyridin-2-yl)benzamide] | –
– | < 10 | Nc1ncnc2c1c(-c1ccc(C(=O)Nc3cc(C(F)(F)F)ccn3)cc1)nn2[C@@H]1CCCN(C(=O)[C@H]2CCCO2)C1 [Example 262, 4-(4-amino-1-((R)-1-((R)-tetrahydrofuran-2-carbonyl)piperidin-3-yl)-1H-pyrazolo[3,4-d]pyrimidin-3-yl)-N-(4-(trifluoromethyl)pyridin-2-yl)benzamide] | –
< 10 | – | Nc1nccn2c(N3CCCC(C(=O)N[C@H]4CCOC4)C3)nc(-c3ccc(C(=O)Nc4cc(C(F)(F)F)ccn4)cc3)c12 (stereo partly drawn) [Example 237, 1-(8-amino-1-(4-(4-(trifluoromethyl)pyridin-2-ylcarbamoyl)phenyl)imidazo[1,5-a]pyrazin-3-yl)-N-((S)-tetrahydrofuran-3-yl)piperidine-3-carboxamide, TFA salt] | –
– | 10 to 100 | CCN(CC)c1nc(-c2ccc(C(=O)Nc3cc(C#N)ccn3)cc2)c2c(N)nccn12 [Example 215, 4-(8-amino-3-(diethylamino)imidazo[1,5-a]pyrazin-1-yl)-N-(4-cyanopyridin-2-yl)benzamide] | –
< 10 | – | Nc1nccn2c(N3CCC[C@H](NC(=O)C4CCC4)C3)nc(-c3ccc(C(=O)Nc4cc(C(F)(F)F)ccn4)cc3)c12 [Example 223, (S)-4-(8-amino-3-(3-(cyclobutanecarboxamido)piperidin-1-yl)imidazo[1,5-a]pyrazin-1-yl)-N-(4-(trifluoromethyl)pyridin-2-yl)benzamide] | –

Reference: patent US9718828B2 (MERCK SHARP & DOHME CORP., priority 2011, dated 2017)
